The target of data set [1] is T1, H2-receptor (Cavia porcellus, UniProt P47747).
T1 construct: Technique for the making of dose-response curves in isolated organs; from tissue
The experiment in a line: H2 agonistic activity (pD2-values), method of J. M. van Rossum, cumulative dose-response curves in isolated organs. The source says: Technique for the making of dose-response curves in isolated organs and the evaluation of drug parameters, Arch. Intern. Pharmacodyn. Therap.

Data set [2] addresses T2, isolated guineapig's ileum (Cavia porcellus).
T2 construct: isolated guineapig's ileum; from tissue; host or cells: isolated guinea pig ileum
The experiment in a line: calcium antagonistic activity on isolated guineapig's ileum stimulated with barium chloride. Conditions: read-out: pA2-value (BaCl2) (converted).

Data set [3] has as its system arterial resistance, coronary dilatation, activity of the heart. Conditions: in words, background, cited from earlier work.

We go through 5 molecules from patent publication US4757080A, “1,4-dihydropyridine derivatives” (Heumann Pharma GmbH & Co., priority 1986, dated 1988).

pEC50: −log10 of the molar value.

The pEC50 is the EC50 on a negative log10 scale, so that one unit is a factor of ten.

T2 sequence (O35505 whole entry): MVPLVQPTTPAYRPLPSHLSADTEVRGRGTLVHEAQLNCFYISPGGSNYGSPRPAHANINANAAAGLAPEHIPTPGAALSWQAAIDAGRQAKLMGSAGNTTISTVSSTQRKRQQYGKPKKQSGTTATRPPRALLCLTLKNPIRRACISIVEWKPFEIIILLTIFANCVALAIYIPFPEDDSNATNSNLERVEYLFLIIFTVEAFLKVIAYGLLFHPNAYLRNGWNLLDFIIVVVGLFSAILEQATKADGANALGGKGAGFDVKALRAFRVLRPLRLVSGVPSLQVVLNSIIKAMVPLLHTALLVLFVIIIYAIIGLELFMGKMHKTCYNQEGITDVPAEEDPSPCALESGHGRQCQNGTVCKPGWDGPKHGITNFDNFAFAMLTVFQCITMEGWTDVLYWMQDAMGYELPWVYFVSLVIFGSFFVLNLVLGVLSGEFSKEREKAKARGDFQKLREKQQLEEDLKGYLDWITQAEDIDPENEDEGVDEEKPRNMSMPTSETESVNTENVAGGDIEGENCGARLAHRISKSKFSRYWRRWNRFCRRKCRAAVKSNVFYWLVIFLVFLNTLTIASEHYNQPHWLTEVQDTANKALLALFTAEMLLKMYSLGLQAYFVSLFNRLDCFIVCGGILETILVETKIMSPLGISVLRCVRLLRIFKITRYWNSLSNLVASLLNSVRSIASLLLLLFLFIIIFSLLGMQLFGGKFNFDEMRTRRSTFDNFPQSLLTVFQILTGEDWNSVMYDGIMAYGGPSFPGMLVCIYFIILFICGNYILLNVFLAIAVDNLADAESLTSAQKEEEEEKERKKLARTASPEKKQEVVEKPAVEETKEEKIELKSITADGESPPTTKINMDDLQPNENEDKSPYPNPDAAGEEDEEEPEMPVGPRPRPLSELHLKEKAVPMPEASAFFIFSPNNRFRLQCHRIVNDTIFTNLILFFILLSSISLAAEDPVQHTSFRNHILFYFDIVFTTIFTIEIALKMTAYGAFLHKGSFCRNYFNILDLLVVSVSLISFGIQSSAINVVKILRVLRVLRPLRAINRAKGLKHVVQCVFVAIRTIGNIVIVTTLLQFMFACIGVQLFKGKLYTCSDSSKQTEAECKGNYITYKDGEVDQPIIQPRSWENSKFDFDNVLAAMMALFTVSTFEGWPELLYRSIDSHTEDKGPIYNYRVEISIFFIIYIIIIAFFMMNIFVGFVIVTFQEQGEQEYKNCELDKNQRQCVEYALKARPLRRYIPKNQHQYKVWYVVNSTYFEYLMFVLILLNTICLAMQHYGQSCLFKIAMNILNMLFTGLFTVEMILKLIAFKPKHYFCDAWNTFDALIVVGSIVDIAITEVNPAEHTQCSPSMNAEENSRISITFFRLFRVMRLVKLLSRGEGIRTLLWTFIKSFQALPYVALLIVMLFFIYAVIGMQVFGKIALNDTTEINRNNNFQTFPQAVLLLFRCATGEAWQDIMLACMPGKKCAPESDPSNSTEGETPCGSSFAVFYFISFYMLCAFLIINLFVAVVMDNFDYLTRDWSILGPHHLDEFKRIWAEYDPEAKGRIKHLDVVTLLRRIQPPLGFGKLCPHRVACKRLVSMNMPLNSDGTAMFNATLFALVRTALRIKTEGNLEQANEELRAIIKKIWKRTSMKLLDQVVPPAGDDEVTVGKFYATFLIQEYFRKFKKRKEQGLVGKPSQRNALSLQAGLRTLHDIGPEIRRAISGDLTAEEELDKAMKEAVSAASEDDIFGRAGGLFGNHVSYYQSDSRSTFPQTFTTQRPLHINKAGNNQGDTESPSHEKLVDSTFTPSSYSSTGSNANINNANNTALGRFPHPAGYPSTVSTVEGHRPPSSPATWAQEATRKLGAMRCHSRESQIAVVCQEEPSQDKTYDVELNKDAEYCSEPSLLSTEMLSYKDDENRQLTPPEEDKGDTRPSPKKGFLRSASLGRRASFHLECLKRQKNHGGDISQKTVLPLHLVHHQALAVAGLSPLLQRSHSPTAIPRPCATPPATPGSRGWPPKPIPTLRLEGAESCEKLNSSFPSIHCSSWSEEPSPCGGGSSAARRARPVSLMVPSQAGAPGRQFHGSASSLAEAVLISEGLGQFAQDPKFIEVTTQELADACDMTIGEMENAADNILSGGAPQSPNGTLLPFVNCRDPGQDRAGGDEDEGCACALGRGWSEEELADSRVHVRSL
T1 sequence (P47747 whole entry): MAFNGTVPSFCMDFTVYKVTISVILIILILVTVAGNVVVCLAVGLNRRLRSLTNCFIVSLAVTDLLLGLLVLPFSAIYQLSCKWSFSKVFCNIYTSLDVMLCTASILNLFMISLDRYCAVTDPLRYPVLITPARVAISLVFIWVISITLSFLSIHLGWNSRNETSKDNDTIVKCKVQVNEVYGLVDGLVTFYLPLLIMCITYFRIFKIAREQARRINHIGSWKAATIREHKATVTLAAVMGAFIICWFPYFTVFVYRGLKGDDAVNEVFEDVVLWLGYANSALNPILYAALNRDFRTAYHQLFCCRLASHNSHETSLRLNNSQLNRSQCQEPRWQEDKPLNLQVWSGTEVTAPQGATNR

`COC(=O)C1=C(C)NC(C)=C(C(=O)OCCNC(=N)NCCCc2c[nH]cn2)C1c1ccccc1[N+](=O)[O-]` (stereo not shown) [Example 1, N^1-[2-[1,4-Dihydro-2,6-dimethyl-3-methoxycarbonyl-4-(2-nitrophenyl)-pyridine-5-carboxy]ethyl]-N^2-[3-(1H-imidazol-4-yl)propyl]-guanidine-hydriodide]: the negative logarithm of the EC50 (pEC50) in data set [1] was 7.32. For the same molecule, in data set [2], the Kb is 0.038 µM.

Turning to `COC(=O)C1=C(C)NC(C)=C(C(=O)OCCCCCCNC(=N)NCCCc2c[nH]cn2)C1c1cccc([N+](=O)[O-])c1` (stereo not shown) [Example 7, N^1-[6[1,4-dihydro-2,6-dimethyl-3-methoxycarbonyl-4-(3-nitrophenyl)-pyridine-5-carboxy]hexyl]-N^2 [3-(1H-imidazol-4-yl)propyl]-guanidine hydriodide], in data set [1], the negative logarithm of the EC50 (pEC50) was 7.41. For the same molecule, the Kb in data set [2] was 0.11 µM.

`COC(=O)C1=C(C)NC(C)=C(C(=O)OCCNC(=N)NCCCc2c[nH]cn2)C1c1cccc(Cl)c1Cl` (stereo not shown) [Example 8, N^1-[2-[1,4-Dihydro-2,6-dimethyl-3-methoxycarbonyl-4-(2,3-dichlorophenyl)-pyridine-5-carboxy]ethyl]-N^2-[3-(1H-imidazol-4-yl)propyl]-guanidine hydriodide] showed a pEC50 in data set [1] of 6.48. Besides, the Kb in data set [2] was 0.0302 µM.

Turning to `Cc1[nH]cnc1CSCCNC(=N)NCCCc1c[nH]cn1` [Impromidine, reference compound], in data set [1], the pEC50 is 7.67.

For the molecule `COC(=O)C1=C(C)NC(C)=C(C(=O)OC)C1c1ccccc1[N+](=O)[O-]` [Nifedipine, 1,4-dihydro-2,6-dimethyl-4-(2-nitrophenyl)-3,5-pyridine carboxylic acid dimethyl ester], in data set [3], the arterial resistance entry was “lowers the arterial resistance” and the coronary dilatory effect entry is “very marked coronary dilatory effect”. Besides, the “inhibition of the activity of the heart” value in data set [3] (therapeutic doses) is given as “without inhibiting the activity of the heart”.
